≈ marks a conversion by molar mass, not a printed value. Bridge positions count the residues as written; N and C are the ends. Peptide text beside a SMILES is read from it.
Key:
[1] = cited from earlier work
[2] = test system: C. albicans; settings: planktonic cells; cited from earlier work
Text: RTD-1 is the prototype θ-defensin, the only known backbone cyclized polypeptides in the Animal Kingdom. All natural θ-defensin isoforms are 18-amino acid macrocycles stabilized by a six cysteine, tridisulfide core. […] As reported here and elsewhere, RTD-1 kills Candida ...

[3] = cited from earlier work; remark: listed apart in the source
[4] = test system: host and fungal proteases; settings: cited from earlier work
[5] = test system: blood neutrophils, monocytes and inflammatory cytokines; test: Hematology and plasma cytokine analyses in naive and candidemic mice; format: in vivo
Text: EDTA-anticoagulated blood was collected aseptically by terminal cardiac puncture and analyzed for complete blood cell count using a HemaVet 950 FS hematology analyzer (Drew Scientific). Plasma cytokine levels plasma were quantified using a mouse-specific MILLIPLEX MAP kit (Millipore) as described.

[6] = test system: C. albicans 43001; test: MIC/MFC, broth microdilution (modified CLSI M27-A2); format: cell-based
Procedure: C. albicans strains were tested against RTD-1, fluconazole, and caspofungin in microdilution broth in accordance with Clinical and Laboratory Standards Institute (CLSI) document M27-A2 with the exception that 25 mM MOPS was used in place of 165 mM MOPS, as described previously. Overnight cultures were harvested by centrifugation, washed twice with Ca^2+ and Mg^2+-free PBS, pH 7.2, and suspended in test medium (RPMI 1640 medium, 25 mM MOPS, 2 mM L-glutamine) at 10^4 CFU/ml[62]. Incubations were conducted in flat bottom, 96-well microtiter plates (Greiner bio-one, Monroe, NC) containing 0.2 ml test medium per well. Duplicate 0.1 ml aliquots of serial two-fold dilutions of peptides and antifungal drugs were dispensed into wells, each of which was inoculated with 0.1 ml of fungal cell suspension containing 1 × 10^3 CFU. Plates were incubated at 30 °C for 48 hours after which A600 was determined using a SpectraMax M5e plate reader.
Minimal fungicidal concentration (MFC) was determined by plating, on YPD plates, 10 µl from wells in MIC assay without cell growth and the first well with measurable turbidity as described[63]–[66] and corresponding aliquots from the no-agent controls. […] MFC is reported as the lowest concentration of peptide or antifungal drug that killed ≥99% of the input organisms.
MICs and MFCs of RTD-1 were also performed in the presence of 50% mouse serum. Serum was prepared from blood collected by cardiac puncture from BALB/c mice. After coagulation at room temperature, serum was collected by centrifugation (200 g for 10 min followed by 23,000 g for 15 min), and diluted with an equal volume of yeast inoculum in MIC test medium described above.

[7] = candidemic mice, single 5 mg/kg i.p., 7 days p.i.
[8] = long term survivors, day 30 p.i.

Compound	stability in serum and plasma [1]	time to permeabilization of C. albicans to propidium iodide [2] [min]	immunogenicity [3]	stability to fungal proteases [4]	stability to host proteases [4]	blood neutrophil counts ([5]; candidemic mice (SC5314), single 5 mg/kg i.p. at T = 0, 4 h p.i.)	blood neutrophil counts ([5]; candidemic mice, single 5 mg/kg i.p. at T = 0, day 7, vs saline)	IL-10 or IL-6 levels [5, 7]	blood proinflammatory cytokines TNF, IL-1β and IL-17 [5, 7]	circulating granulocytes [5, 8]	levels of TNF, IL-10 and IL-6 [5, 8]	blood cytokine levels ([5]; naive mice)	increase of blood neutrophils ([5]; naive mice, single 5 mg/kg i.p., 4 h, P = 0.32) [fold]	MIC ([6]; Candida albicans, 43001, RPMI 1640, 25 mM MOPS, 2 mM L-glutamine, 1 × 10^3 CFU/well, 30 °C, 48 h, A600, complete inhibition of growth, duplicate, read-out: MIC) [µg/mL]	MFC ([6]; Candida albicans, 43001, RPMI, plating of MIC wells on YPD, ≥99% killing of input inoculum) [µg/mL]	resistance relative to drug sensitive SC5314 ([6]; strain 43001 vs SC5314, RPMI) [fold]
CC[C@H](C)[C@@H]1NC(=O)[C@@H]2CSSC[C@H](NC(=O)[C@H](CCCNC(=N)N)NC(=O)[C@@H]3CSSC[C@H](NC1=O)C(=O)N[C@@H]([C@@H](C)O)C(=O)N[C@@H](CCCNC(=N)N)C(=O)NCC(=O)N[C@@H](Cc1ccccc1)C(=O)N3)C(=O)N[C@@H](CC(C)C)C(=O)N[C@H]1CSSC[C@H](NC(=O)[C@H](C(C)C)NC(=O)CNC(=O)[C@H](CCCNC(=N)N)NC(=O)[C@H](CCCNC(=N)N)NC1=O)C(=O)N[C@@H](CCCNC(=N)N)C(=O)N2 [RTD-1, Rhesus theta (θ) defensin-1] (cyclo(GFCRCLCRRGVCRCICTR); disulfide 3-16, 5-14, 7-12 (inferred); ring closure inferred)	highly stable	< 10	non-immunogenic	highly stable	highly stable	significantly (P = 0.008) increased blood neutrophil counts	significantly (P = 0.0002) lower	no effect	significant reduction	homeostatic normalization of circulating granulocytes	normalized to those of uninfected controls	did not alter the levels of these cytokines	2.3	–	–	–
CC[C@H](C)C[C@H](C)CCCCCCCCC(=O)N[C@H]1C[C@@H](O)[C@@H](NCCN)NC(=O)[C@@H]2[C@@H](O)CCN2C(=O)[C@H]([C@H](O)CCN)NC(=O)[C@H]([C@H](O)[C@@H](O)c2ccc(O)cc2)NC(=O)[C@@H]2C[C@@H](O)CN2C(=O)[C@H]([C@@H](C)O)NC1=O [Caspo, caspofungin]	–	–	–	–	–	–	–	–	–	–	–	–	–	2 (≈ 1.83 µM)	2 (≈ 1.83 µM)	33

Reference: publication PMC6858451, “Rhesus Theta Defensin 1 Promotes Long Term Survival in Systemic Candidiasis by Host Directed Mechanisms” (Scientific Reports, 2019)
